Measured values published in US20240360113A1, “AMINOARYL-INTEGRIN AGONISTS COMPOUNDS” (Texas Heart Institute, priority 2021, published 2024).

Legend:
α4β1/VCAM-1 = biological target: T1, α4β1/VCAM-1 (Homo sapiens, UniProt P05556+P13612); assay: Static cell adhesion assay, Jurkat cells on VCAM-1 (VLA-4 agonist activity); assay type: cell-based; conditions: EC50 relative to THI0349 (average 11 uM) run on the same plate; Jurkat cells, 50% FBS
T1 construct: The Jurkat (VCAM-1 assays) and HSB (ICAM-1 assays) cell lines were obtained from American Type Culture Collection; endogenous in cells; host or cells: Jurkat (ATCC)
T1 sequence (P13612 34-1032): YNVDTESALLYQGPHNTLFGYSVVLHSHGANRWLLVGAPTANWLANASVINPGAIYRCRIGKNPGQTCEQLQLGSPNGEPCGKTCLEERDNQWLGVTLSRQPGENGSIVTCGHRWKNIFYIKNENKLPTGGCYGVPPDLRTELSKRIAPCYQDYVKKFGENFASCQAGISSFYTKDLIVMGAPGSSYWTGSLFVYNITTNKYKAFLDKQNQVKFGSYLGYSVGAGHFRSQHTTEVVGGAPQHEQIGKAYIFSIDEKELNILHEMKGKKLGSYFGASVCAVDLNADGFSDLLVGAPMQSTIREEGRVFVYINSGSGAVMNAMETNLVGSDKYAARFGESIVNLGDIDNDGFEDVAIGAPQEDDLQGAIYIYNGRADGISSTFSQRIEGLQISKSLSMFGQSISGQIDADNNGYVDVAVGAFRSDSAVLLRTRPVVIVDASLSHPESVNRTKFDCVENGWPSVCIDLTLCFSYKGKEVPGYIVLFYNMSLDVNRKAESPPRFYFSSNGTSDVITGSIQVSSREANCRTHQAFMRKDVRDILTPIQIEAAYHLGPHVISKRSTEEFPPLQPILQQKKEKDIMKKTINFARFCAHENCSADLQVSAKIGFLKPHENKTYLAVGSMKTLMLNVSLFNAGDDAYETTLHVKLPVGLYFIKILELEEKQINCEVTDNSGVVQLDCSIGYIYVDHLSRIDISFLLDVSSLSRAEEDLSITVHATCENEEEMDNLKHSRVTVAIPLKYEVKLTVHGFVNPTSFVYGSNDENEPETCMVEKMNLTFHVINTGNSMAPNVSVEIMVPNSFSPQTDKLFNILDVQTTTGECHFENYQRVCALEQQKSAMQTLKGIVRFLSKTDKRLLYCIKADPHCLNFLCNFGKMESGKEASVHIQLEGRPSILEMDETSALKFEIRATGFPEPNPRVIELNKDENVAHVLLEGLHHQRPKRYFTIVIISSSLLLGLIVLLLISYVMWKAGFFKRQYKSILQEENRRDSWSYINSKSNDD
T1 sequence (P05556 21-798): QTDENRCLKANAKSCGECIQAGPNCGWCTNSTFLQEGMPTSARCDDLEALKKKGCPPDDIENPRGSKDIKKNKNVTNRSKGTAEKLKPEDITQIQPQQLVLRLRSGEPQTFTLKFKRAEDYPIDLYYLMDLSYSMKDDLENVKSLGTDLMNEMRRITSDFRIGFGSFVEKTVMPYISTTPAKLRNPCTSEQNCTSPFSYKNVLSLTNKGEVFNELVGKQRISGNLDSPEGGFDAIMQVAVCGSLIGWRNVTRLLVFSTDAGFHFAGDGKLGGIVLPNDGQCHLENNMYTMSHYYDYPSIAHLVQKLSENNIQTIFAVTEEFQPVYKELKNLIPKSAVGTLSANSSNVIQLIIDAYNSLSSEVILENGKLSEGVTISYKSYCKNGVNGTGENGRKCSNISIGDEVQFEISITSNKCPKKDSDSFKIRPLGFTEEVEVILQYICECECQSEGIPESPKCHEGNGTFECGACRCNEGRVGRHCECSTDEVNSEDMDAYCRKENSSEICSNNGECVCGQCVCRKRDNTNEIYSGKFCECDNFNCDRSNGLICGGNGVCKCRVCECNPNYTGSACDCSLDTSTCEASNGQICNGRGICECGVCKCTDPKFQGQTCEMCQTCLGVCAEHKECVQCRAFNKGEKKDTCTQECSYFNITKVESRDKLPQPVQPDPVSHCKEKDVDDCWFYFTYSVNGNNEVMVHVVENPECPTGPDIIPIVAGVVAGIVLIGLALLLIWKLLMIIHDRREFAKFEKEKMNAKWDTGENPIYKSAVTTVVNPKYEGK
In short: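 Calcein-labelled Jurkat cells (2×10^5/well) were added to wells coated with a sub-optimal level of human VCAM-1 (0.5 μg/mL) in PBS, 1 mM MgCl2, 50% FBS with compound in 1% DMSO. After 30 min at 37° C. and washing, adherent-cell fluorescence was read. EC50 was the concentration giving 50% of maximal response.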

αLβ2/ICAM-1 = biological target: T2, αLβ2/ICAM-1 (Homo sapiens, UniProt P05107+P20701); assay: Static cell adhesion assay, HSB cells on ICAM-1 (LFA-1; LAD); assay type: cell-based; conditions: RFU of compound / RFU of THI0349, both at the same concentration
T2 construct: The Jurkat (VCAM-1 assays) and HSB (ICAM-1 assays) cell lines were obtained from American Type Culture Collection; endogenous in cells; host or cells: HSB (ATCC)
T2 sequence (P20701 26-1170): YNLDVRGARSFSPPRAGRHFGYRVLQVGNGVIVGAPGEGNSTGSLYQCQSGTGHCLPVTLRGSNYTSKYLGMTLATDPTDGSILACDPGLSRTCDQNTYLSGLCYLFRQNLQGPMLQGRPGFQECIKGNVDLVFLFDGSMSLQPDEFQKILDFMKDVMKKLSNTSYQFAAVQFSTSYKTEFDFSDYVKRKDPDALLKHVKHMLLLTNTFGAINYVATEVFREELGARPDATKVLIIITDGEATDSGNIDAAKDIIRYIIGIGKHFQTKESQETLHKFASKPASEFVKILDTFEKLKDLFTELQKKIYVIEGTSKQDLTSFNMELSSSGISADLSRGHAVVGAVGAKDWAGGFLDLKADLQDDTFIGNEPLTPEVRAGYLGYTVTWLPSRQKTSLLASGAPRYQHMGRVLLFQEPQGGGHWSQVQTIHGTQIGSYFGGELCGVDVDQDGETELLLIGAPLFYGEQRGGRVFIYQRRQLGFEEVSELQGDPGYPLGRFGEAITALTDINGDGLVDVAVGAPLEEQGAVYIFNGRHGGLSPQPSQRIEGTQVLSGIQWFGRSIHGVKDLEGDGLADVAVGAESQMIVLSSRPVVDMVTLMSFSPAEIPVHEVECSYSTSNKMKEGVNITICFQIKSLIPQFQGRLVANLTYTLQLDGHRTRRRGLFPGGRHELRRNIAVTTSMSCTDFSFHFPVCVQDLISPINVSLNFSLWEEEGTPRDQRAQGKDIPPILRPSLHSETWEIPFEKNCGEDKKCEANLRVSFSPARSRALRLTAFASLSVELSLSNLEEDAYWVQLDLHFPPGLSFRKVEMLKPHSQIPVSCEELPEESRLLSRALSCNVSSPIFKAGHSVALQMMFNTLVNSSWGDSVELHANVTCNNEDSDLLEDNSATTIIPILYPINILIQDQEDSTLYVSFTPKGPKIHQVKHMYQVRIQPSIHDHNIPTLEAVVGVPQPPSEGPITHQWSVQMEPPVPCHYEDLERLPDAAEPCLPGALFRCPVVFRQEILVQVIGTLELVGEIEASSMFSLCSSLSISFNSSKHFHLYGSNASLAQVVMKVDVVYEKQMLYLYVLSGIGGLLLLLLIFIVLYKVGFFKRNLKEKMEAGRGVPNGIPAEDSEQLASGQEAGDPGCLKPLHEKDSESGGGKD
T2 sequence (P05107 23-769): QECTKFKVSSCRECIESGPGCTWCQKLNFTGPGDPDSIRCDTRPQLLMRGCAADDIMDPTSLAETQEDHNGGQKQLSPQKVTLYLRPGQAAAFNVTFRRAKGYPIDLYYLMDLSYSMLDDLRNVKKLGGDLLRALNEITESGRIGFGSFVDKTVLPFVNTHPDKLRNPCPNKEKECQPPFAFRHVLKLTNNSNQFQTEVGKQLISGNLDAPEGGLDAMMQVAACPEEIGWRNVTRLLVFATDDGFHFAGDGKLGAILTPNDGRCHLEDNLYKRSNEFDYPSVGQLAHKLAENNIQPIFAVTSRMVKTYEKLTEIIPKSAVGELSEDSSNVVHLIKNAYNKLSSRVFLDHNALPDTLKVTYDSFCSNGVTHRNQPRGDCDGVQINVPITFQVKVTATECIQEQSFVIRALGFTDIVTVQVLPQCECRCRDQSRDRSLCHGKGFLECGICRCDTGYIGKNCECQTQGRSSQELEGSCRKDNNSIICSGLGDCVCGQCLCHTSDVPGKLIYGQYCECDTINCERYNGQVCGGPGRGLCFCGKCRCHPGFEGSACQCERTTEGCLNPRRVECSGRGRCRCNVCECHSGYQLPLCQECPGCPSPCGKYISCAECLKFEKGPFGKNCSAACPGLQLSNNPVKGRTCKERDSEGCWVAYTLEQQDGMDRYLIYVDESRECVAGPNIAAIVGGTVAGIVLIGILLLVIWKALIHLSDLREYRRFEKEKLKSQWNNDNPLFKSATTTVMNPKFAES
In short: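 HSB cells were labeled with calcein-AM for 30 minutes, washed, resuspended in binding buffer (PBS with 2 mM MgCl2, 5 mM EGTA, 50% FBS) and plated at 2×10^5 cells/well in triplicate onto 96-well plates coated overnight at 4° C with ICAM-1 (5 μg/mL in 50 μL TBS) and blocked with 2% BSA. Compounds were tested in 1% DMSO. After 30 minutes at 37° C and three washes, adherent cells were lysed and fluorescence was read; results are compound RFU divided by THI0349 RFU.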

| SMILES | Group against VCAM (α4β1/VCAM-1) | LAD Raw Fluorescence Units against LFA-1; Dose 3 µM; Ratio of raw counts Compound/THI0349 (αLβ2/ICAM-1) |
| --- | --- | --- |
| COc1cccc(CN(Cc2cccc(OC)c2)c2nc(COCCO)cs2)c1 [Compound 33, 2-((2-(bis(3-methoxybenzyl)amino)thiazol-4-yl)methoxy)ethanol] | III (Group III more than five times the EC50 of THI0349) | 0.31 |
| COc1cccc(CN(Cc2cccc(-n3ccnc3)c2)c2nc(CN3CCOCC3)cs2)c1 [Compound 79, N-(3-(1H-imidazol-1-yl)benzyl)-N-(3-methoxybenzyl)-4-(morpholinomethyl)thiazol-2-amine] | II (Group II is more than twice that of THI0349 but less than five times THI0349's EC50) | 0.32 |
| COc1cccc(COCc2csc(N(C)Cc3cccc(OC)c3)n2)c1 [Compound 112, N-(3-methoxybenzyl)-4-((3-methoxybenzyloxy)methyl)-N-methylthiazol-2-amine] | III (Group III more than five times the EC50 of THI0349) | 0.04 |
| COc1cccc(CNC(=O)c2coc(N(Cc3cccc(OC)c3)Cc3cccc(OC)c3)n2)c1 [Compound 18, 2-(bis(3-methoxybenzyl)amino)-N-(3-methoxybenzyl)oxazole-4-carboxamide] | II (Group II is more than twice that of THI0349 but less than five times THI0349's EC50) | 0.17 |
| COc1ccc(CCCOCc2coc(N(Cc3cccs3)Cc3cccs3)n2)cc1 [Compound 24, 4-((3-(4-methoxyphenyl)propoxy)methyl)-N,N-bis(thiophen-2-ylmethyl)oxazol-2-amine] | II (Group II is more than twice that of THI0349 but less than five times THI0349's EC50) | 0.85 |
| COc1cccc(CN(Cc2cccc(OC)c2)c2nc(COCCOc3cccc(OC)c3)cs2)c1 [Compound 47, N,N-bis(3-methoxybenzyl)-4-((2-(3-methoxyphenoxy)ethoxy)methyl)thiazol-2-amine] | I (Group I maintains at least the same potency or better up to more than twice that of the EC50 of THI0349 ran on the same plate) | 0.7 |
| COc1cccc(COCc2cccc(N(Cc3cccc(OC)c3)Cc3cccc(OC)c3)c2)c1 [Compound 90, N,N-bis(3-methoxybenzyl)-3-(((3-methoxybenzyl)oxy)methyl)aniline] | III (Group III more than five times the EC50 of THI0349) | 0.09 |
| CCOC(=O)c1coc(N(Cc2ccc(OC)cc2)Cc2ccc(OC)cc2)n1 [Compound 15, ethyl 2-(bis(4-methoxybenzyl)amino)oxazole-4-carboxylate] | III (Group III more than five times the EC50 of THI0349) | 0.52 |
| COc1cccc(CN(Cc2cccc(N(C)C)c2)c2nc(CN3CCOCC3)cs2)c1 [Compound 73, N-(3-(dimethylamino)benzyl)-N-(3-methoxybenzyl)-4-(morpholinomethyl)thiazol-2-amine] | II (Group II is more than twice that of THI0349 but less than five times THI0349's EC50) | 0.12 |
| COc1cccc(CN(Cc2cccc(OC)c2)c2nc(COCCOCCOc3ccc(Cl)cc3)cs2)c1 [Compound 44, 4-((2-(2-(4-chlorophenoxy)ethoxy)ethoxy)methyl)-N,N-bis(3-methoxybenzyl)thiazol-2-amine] | I (Group I maintains at least the same potency or better up to more than twice that of the EC50 of THI0349 ran on the same plate) | 0.77 |
| COc1cccc(CN(Cc2cccc(OC)c2)c2nc(COCCOCc3ccccc3Cl)cs2)c1 [Compound 59, 4-((2-((2-chlorobenzyl)oxy)ethoxy)methyl)-N,N-bis(3-methoxybenzyl)thiazol-2-amine] | II (Group II is more than twice that of THI0349 but less than five times THI0349's EC50) | 1.0 |
| COc1cccc(CN(Cc2cccc(OC)c2)c2cnc(CCOc3ccccc3)o2)c1 [Compound 27, N,N-bis(3-methoxybenzyl)-2-(2-phenoxyethyl)oxazol-5-amine] | III (Group III more than five times the EC50 of THI0349) | 0.28 |
| COc1cccc(CN(Cc2cccc(OC)c2)c2nc(COCCOCCOc3cccc(OC)c3)cs2)c1 [Compound 42, N,N-bis(3-methoxybenzyl)-4-((2-(2-(3-methoxyphenoxy)ethoxy)ethoxy)methyl)thiazol-2-amine] | I (Group I maintains at least the same potency or better up to more than twice that of the EC50 of THI0349 ran on the same plate) | 1.6 |
| CCc1nnc(N(Cc2cccc(OC)c2)Cc2cccc(OC)c2)s1 [Compound 94, 5-ethyl-N,N-bis(3-methoxybenzyl)-1,3,4-thiadiazol-2-amine] | III (Group III more than five times the EC50 of THI0349) | 0.29 |
| COc1cccc(COCc2csc(N(Cc3cccc(OC)c3)Cc3cccc(OC)c3)n2)c1 [Compound 38, N,N-bis(3-methoxybenzyl)-4-((3-methoxybenzyloxy)methyl)thiazol-2-amine] | III (Group III more than five times the EC50 of THI0349) | 0.16 |
| COc1cccc(CN(Cc2cccc(OC)c2)c2nc(COCCN3CCOCC3)cs2)c1 [Compound 64, N,N-bis(3-methoxybenzyl)-4-((2-morpholinoethoxy)methyl)thiazol-2-amine] | I (Group I maintains at least the same potency or better up to more than twice that of the EC50 of THI0349 ran on the same plate) | 0.31 |
| COc1ccc(CN(Cc2ccc(OC)cc2)c2nc(COCCOCCO)cs2)cc1 [Compound 34, 2-(2-((2-(bis(4-methoxybenzyl)amino)thiazol-4-yl)methoxy)ethoxy)ethanol] | III (Group III more than five times the EC50 of THI0349) | 0.34 |
